In EP0726263A2, “Herbicidal (1,3,4)oxadiazoles and thiadiazoles” (American Cyanamid Company, priority 1995, dated 1996):

Key:
Format in all cases: in vivo
Ipomoea hederacea [1] = assay: Herbicidal activity, postemergence test; settings: post; sprayed onto seedling plants, 800 g of active material per hectare; evaluated 2 weeks after treatment
In short: (§1)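 Spray dose 800 g a.i./ha in 900 L/ha; acetone stock with 0.4% Triton X-155, water-diluted. Pre: sown loam soil, read at 3 wk. Post: seedling plants, read at 2 wk. Visual 0-9 rating vs untreated.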

Ambrosia artemisifolia [2] = assay: Herbicidal activity, postemergence test; settings: post; sprayed onto seedling plants, 800 g of active material per hectare; evaluated 2 weeks after treatment
In short: as §1

Zea mays [3] = assay: Herbicidal activity, postemergence test; settings: post; sprayed onto seedling plants, 800 g of active material per hectare; evaluated 2 weeks after treatment
In short: as §1

Echinochloa crus-galli [4] = assay: Herbicidal activity, postemergence test; settings: post; sprayed onto seedling plants, 800 g of active material per hectare; evaluated 2 weeks after treatment
In short: as §1

Lamium purpureum [5] = assay: Herbicidal activity, postemergence test; settings: post; sprayed onto seedling plants, 800 g of active material per hectare; evaluated 2 weeks after treatment
In short: as §1

Triticum aestivum [6] = assay: Herbicidal activity, postemergence test; settings: post; sprayed onto seedling plants, 800 g of active material per hectare; evaluated 2 weeks after treatment
In short: as §1

Veronica persica [7] = assay: Herbicidal activity, postemergence test; settings: post; sprayed onto seedling plants, 800 g of active material per hectare; evaluated 2 weeks after treatment
In short: as §1

Galium aparine [8] = assay: Herbicidal activity, postemergence test; settings: post; sprayed onto seedling plants, 800 g of active material per hectare; evaluated 2 weeks after treatment
In short: as §1

Gossypium hirsutum [9] = assay: Herbicidal activity, postemergence test; settings: post; sprayed onto seedling plants, 800 g of active material per hectare; evaluated 2 weeks after treatment
In short: as §1

Viola arvensis [10] = assay: Herbicidal activity, postemergence test; settings: post; sprayed onto seedling plants, 800 g of active material per hectare; evaluated 2 weeks after treatment
In short: as §1

Glycine max [11] = assay: Herbicidal activity, postemergence test; settings: post; sprayed onto seedling plants, 800 g of active material per hectare; evaluated 2 weeks after treatment
In short: as §1

Hordeum vulgare [12] = assay: Herbicidal activity, postemergence test; settings: post; sprayed onto seedling plants, 800 g of active material per hectare; evaluated 2 weeks after treatment
In short: as §1

Amaranthus retroflexus [13] = assay: Herbicidal activity, postemergence test; settings: post; sprayed onto seedling plants, 800 g of active material per hectare; evaluated 2 weeks after treatment
In short: as §1

Helianthus annuus [14] = assay: Herbicidal activity, postemergence test; settings: post; sprayed onto seedling plants, 800 g of active material per hectare; evaluated 2 weeks after treatment
In short: as §1

Abutilon theophrasti [15] = assay: Herbicidal activity, postemergence test; settings: post; sprayed onto seedling plants, 800 g of active material per hectare; evaluated 2 weeks after treatment
In short: as §1

Stellaria media [16] = assay: Herbicidal activity, postemergence test; settings: post; sprayed onto seedling plants, 800 g of active material per hectare; evaluated 2 weeks after treatment
In short: as §1

Setaria viridis [17] = assay: Herbicidal activity, postemergence test; settings: post; sprayed onto seedling plants, 800 g of active material per hectare; evaluated 2 weeks after treatment
In short: as §1

Alopecurus myosuroides [18] = assay: Herbicidal activity, postemergence test; settings: post; sprayed onto seedling plants, 800 g of active material per hectare; evaluated 2 weeks after treatment
In short: as §1

Ipomoea hederacea [19] = assay: Herbicidal activity, preemergence test; settings: pre; sprayed onto soil, 800 g of active material per hectare; evaluated 3 weeks after treatment
In short: as §1

Ambrosia artemisifolia [20] = assay: Herbicidal activity, preemergence test; settings: pre; sprayed onto soil, 800 g of active material per hectare; evaluated 3 weeks after treatment
In short: as §1

Zea mays [21] = assay: Herbicidal activity, preemergence test; settings: pre; sprayed onto soil, 800 g of active material per hectare; evaluated 3 weeks after treatment
In short: as §1

Echinochloa crus-galli [22] = assay: Herbicidal activity, preemergence test; settings: pre; sprayed onto soil, 800 g of active material per hectare; evaluated 3 weeks after treatment
In short: as §1

Lamium purpureum [23] = assay: Herbicidal activity, preemergence test; settings: pre; sprayed onto soil, 800 g of active material per hectare; evaluated 3 weeks after treatment
In short: as §1

Triticum aestivum [24] = assay: Herbicidal activity, preemergence test; settings: pre; sprayed onto soil, 800 g of active material per hectare; evaluated 3 weeks after treatment
In short: as §1

Veronica persica [25] = assay: Herbicidal activity, preemergence test; settings: pre; sprayed onto soil, 800 g of active material per hectare; evaluated 3 weeks after treatment
In short: as §1

Galium aparine [26] = assay: Herbicidal activity, preemergence test; settings: pre; sprayed onto soil, 800 g of active material per hectare; evaluated 3 weeks after treatment
In short: as §1

Gossypium hirsutum [27] = assay: Herbicidal activity, preemergence test; settings: pre; sprayed onto soil, 800 g of active material per hectare; evaluated 3 weeks after treatment
In short: as §1

Viola arvensis [28] = assay: Herbicidal activity, preemergence test; settings: pre; sprayed onto soil, 800 g of active material per hectare; evaluated 3 weeks after treatment
In short: as §1

Glycine max [29] = assay: Herbicidal activity, preemergence test; settings: pre; sprayed onto soil, 800 g of active material per hectare; evaluated 3 weeks after treatment
In short: as §1

Hordeum vulgare [30] = assay: Herbicidal activity, preemergence test; settings: pre; sprayed onto soil, 800 g of active material per hectare; evaluated 3 weeks after treatment
In short: as §1

Amaranthus retroflexus [31] = assay: Herbicidal activity, preemergence test; settings: pre; sprayed onto soil, 800 g of active material per hectare; evaluated 3 weeks after treatment
In short: as §1

Helianthus annuus [32] = assay: Herbicidal activity, preemergence test; settings: pre; sprayed onto soil, 800 g of active material per hectare; evaluated 3 weeks after treatment
In short: as §1

Abutilon theophrasti [33] = assay: Herbicidal activity, preemergence test; settings: pre; sprayed onto soil, 800 g of active material per hectare; evaluated 3 weeks after treatment
In short: as §1

Stellaria media [34] = assay: Herbicidal activity, preemergence test; settings: pre; sprayed onto soil, 800 g of active material per hectare; evaluated 3 weeks after treatment
In short: as §1

Setaria viridis [35] = assay: Herbicidal activity, preemergence test; settings: pre; sprayed onto soil, 800 g of active material per hectare; evaluated 3 weeks after treatment
In short: as §1

Alopecurus myosuroides [36] = assay: Herbicidal activity, preemergence test; settings: pre; sprayed onto soil, 800 g of active material per hectare; evaluated 3 weeks after treatment
In short: as §1

C[C@H](NC(=O)c1nnc(-c2ccccc2)o1)c1ccccc1 [Example 4]
IPOHE control rating (0-9) (Ipomoea hederacea [1]): 9 (complete kill)
AMBEL control rating (0-9) (Ambrosia artemisifolia [2]): 9 (complete kill)
ZEAMX control rating (0-9) (Zea mays [3]): 3 (moderate effect)
ECHCG control rating (0-9) (Echinochloa crus-galli [4]): 5 (definite injury)
LAMPU control rating (0-9) (Lamium purpureum [5]): 6 (herbicidal effect)
TRZAW control rating (0-9) (Triticum aestivum [6]): 4 (injury)
VERPE control rating (0-9) (Veronica persica [7]): 9 (complete kill)
GALAP control rating (0-9) (Galium aparine [8]): 8 (approaching complete kill)
GOSHI control rating (0-9) (Gossypium hirsutum [9]): 9 (complete kill)
VIOAR control rating (0-9) (Viola arvensis [10]): 7 (good herbicidal effect)
GLXMA control rating (0-9) (Glycine max [11]): 8 (approaching complete kill)
HORVW control rating (0-9) (Hordeum vulgare [12]): 5 (definite injury)
AMARE control rating (0-9) (Amaranthus retroflexus [13]): 9 (complete kill)
HELAN control rating (0-9) (Helianthus annuus [14]): 9 (complete kill)
ABUTH control rating (0-9) (Abutilon theophrasti [15]): 9 (complete kill)
STEME control rating (0-9) (Stellaria media [16]): 9 (complete kill)
SETVI control rating (0-9) (Setaria viridis [17]): 8 (approaching complete kill)
ALOMY control rating (0-9) (Alopecurus myosuroides [18]): 4 (injury)
IPOHE control rating (0-9) (Ipomoea hederacea [19]): 0 (no effect)
AMBEL control rating (0-9) (Ambrosia artemisifolia [20]): 0 (no effect)
ZEAMX control rating (0-9) (Zea mays [21]): 1 (trace effect)
ECHCG control rating (0-9) (Echinochloa crus-galli [22]): 4 (injury)
LAMPU control rating (0-9) (Lamium purpureum [23]): 3 (moderate effect)
TRZAW control rating (0-9) (Triticum aestivum [24]): 0 (no effect)
VERPE control rating (0-9) (Veronica persica [25]): 6 (herbicidal effect)
GALAP control rating (0-9) (Galium aparine [26]): 0 (no effect)
GOSHI control rating (0-9) (Gossypium hirsutum [27]): 0 (no effect)
VIOAR control rating (0-9) (Viola arvensis [28]): 6 (herbicidal effect)
GLXMA control rating (0-9) (Glycine max [29]): 0 (no effect)
HORVW control rating (0-9) (Hordeum vulgare [30]): 0 (no effect)
AMARE control rating (0-9) (Amaranthus retroflexus [31]): 8 (approaching complete kill)
HELAN control rating (0-9) (Helianthus annuus [32]): 0 (no effect)
ABUTH control rating (0-9) (Abutilon theophrasti [33]): 1 (trace effect)
STEME control rating (0-9) (Stellaria media [34]): 6 (herbicidal effect)
SETVI control rating (0-9) (Setaria viridis [35]): 4 (injury)
ALOMY control rating (0-9) (Alopecurus myosuroides [36]): 0 (no effect)
